According to patent publication US12304912B2, “Fused bicyclic RAF inhibitors and methods for use thereof” (Jazz Pharmaceuticals Ireland Limited, priority 2020, dated 2025):
In brackets after ≈: the same amount, converted by molar mass. Where a name gives a salt, the structure may show the parent alone. Read-outs that look alike come from different tables or passages of the source.

Tests used:
[1] = tested on: constitutive ERK phosphorylation in HCT-116 cells; assay: HCT-116 AlphaLISA SureFire pERK1/2 cellular assay; format: cell-based, human; settings: Homo sapiens, HCT-116, HCT116 cells, 2 hr, read-out: pERK HCT116 (2 hr) Abs pIC50 (converted)
Protocol: HCT-116 AlphaLISA SureFire pERK1/2 Cellular Assay […] […] Assay read outs took place 2 or 24 hours after dosing with compounds. On the first day, HCT-116 cells were harvested, resuspended in growth medium (McCoys5A with Glutamax (Life Technologies 36600021) and 10% heat-inactivated fetal bovine serum (Sigma F9665)), and counted. Cells were plated in 100 μl per well in each well of a 96-well culture dish (Sigma CLS3598) to a final density of 30,000 (2 hr read) or 15,000 (24 hr read) cells per well and incubated over night at 37° C. and 5% CO2. On day 2, the growth medium was exchanged for dosing medium (McCoys5A with Glutamax (Life Technologies 36600021) and 1% heat-inactivated fetal bovine serum (Sigma F9665)) and the cells were dosed with compounds to produce a 10-point dose response, where the top concentration was 1 μM and subsequent concentrations were at 1/3 log dilution intervals. A matched DMSO control was included. The cells were subsequently incubated for either 2 or 24 hours at 37° C. and 5% CO2. After incubation, media was removed and the cells were incubated with lysis buffer containing phosphatase inhibitors for 15 minutes at room temperature. Cell lysates were transferred to a 12 area 96 well white Optiplate™ (Perkin Elmer 6005569) and incubated with anti-mouse IgG acceptor beads, a biotinylated anti-ERK1/2 rabbit antibody recognizing both phosphorylated and non-phosphorylated ERK1/2, a mouse antibody targeted to the Thr202/Tyr204 epitope and recognizing phosphorylated ERK proteins only, and streptavidin-coated donor beads. The biotinylated antibody binds to the streptavidin-coated donor beads and the phopsho-ERK1/2 antibody binds to the acceptor beads. […] Both antibodies bound to phosphorylated ERK proteins, bringing the donor and acceptor beads into close proximity. All data were analyzed using the Dotmatics or GraphPad Prism software packages. Inhibition of ERK phosphorylation was assessed by determination of the absolute IC50 value, which is defined as the concentration of compound required to decrease the level of phosphorylated ERK proteins by 50% when compared to DMSO control.

[2] = Solubility (Sol), medium not stated; format: physicochemical; settings: cells not marked (FESSIF)
HCT-116 cells = assay: HCT-116 CellTiter-Glo 3D cell proliferation assay; format: cell-based; settings: Homo sapiens, HCT-116; HCT116 cells, 3D proliferation; read-out: 3D HCT116 pGI50 (converted)
Protocol: HCT-116 CellTiter-Glo 3D Cell Proliferation Assay
The human HCT-116 colorectal carcinoma cell line (ATCC CCL-247) endogenously expresses the KRAS^G13D mutation, which leads to enhanced survival and proliferative signaling. […] On the first day, HCT-116 cells were harvested, resuspended in growth medium (McCoys5A with Glutamax (Life Technologies 36600021) with 10% heat-inactivated fetal bovine serum (Sigma F9665)), and counted. Cells were plated in 100 μl per well in each well of a Corning 7007 96-well clear round bottom Ultra-Low Attachment plate (VWR 444-1020) to a final density of 1000 cells per well. Cells were seeded for pre- and post-treatment readouts. The cells were then incubated at 37° C. and 5% CO2 for 3 days (72 hours) to allow spheroid formation. After 72 hours, the plate seeded for a pre-treatment read was removed from the incubator to allow equilibration to room temperature for 30 minutes, before CellTitre-Glo® reagent was added to each well. The plates were incubated at room temperature for 5 minutes shaking at 300 rpm, followed by an incubation of 25 minutes on the benchtop before being read on the Envision reader (Perkin Elmer) as described below. On the same day, the cells plated for the post-treatment readout were dosed with compounds to produce a 9-point dose response, where the top concentration was 15 μM and following concentrations were at 1/2 log dilution intervals. These cells were subsequently incubated at 37° C. and 5% CO2 for another 4 days (96 hours). After 4 days, the plate was removed from the incubator to allow equilibration to room temperature for 30 minutes and treated with CellTitre Glo® reagent as stated above. […] The CellTitre Glo® reagent lyses the cells and contains luciferin and a luciferase (Ultra-Glo™ Recombinant Luciferase), which in the presence of ATP and oxygen can produce bioluminescence from luciferin. Therefore, plates were read on an EnVision reader (Perkin Elmer) and luminescence signals were recorded. Cell proliferation was determined on 4 days after dosing relative to the pre-treatment read. All data were analyzed using the Dotmatics or GraphPad Prism software packages. Inhibition of proliferation was assessed by determination of the GI50 value, which was defined as the concentration of compound required to decrease the level of cell proliferation by 50% when compared to DMSO control.

WiDr cells = assay: WiDr CellTiter-Glo 3D cell proliferation assay; format: cell-based; settings: Homo sapiens; WiDr cells, 3D proliferation; read-out: 3D WiDr pGI50 (converted)
FeSSIF solubility assay = format: physicochemical; settings: fed state simulated intestinal fluid (FeSSIF), thermodynamic from solid, pH 5 acetate buffer, 37° C.
Protocol: FeSSIF Solubility Assay 1 mL of fed state simulated intestinal fluid (FeSSIF), prepared using FaSSIF/FeSSIF/FaSSGF powder (Biorelevant.com) and pH 5 acetate buffer, was added to 1.0 mg of compound and then incubated for 24 h (Bioshake iQ, 650 rpm, 37° C.). Following filtration under positive pressure, the concentration of compound in solution was assessed by LC-UV in comparison to the response for a calibration standard of known concentration (250 μM). FeSSIF solubility results are described in Tables 1-2.

Row | Compound | IC50 ([1]; absolute IC50) | Sol [2] | IC50 ([1]; Abs) | solubility thermodynamic at 24 h (FeSSIF solubility assay; read-out: FESSIF Sol) | also measured
1 | O=C1CCc2c(Oc3ccc4c(c3)CN(c3nc(-c5ccccc5)n[nH]3)CC4)ccnc2N1 [Compound 44, 5-[[2-(3-phenyl-1H-1,2,4-triazol-5-yl)-3,4-dihydro-1H-isoquinolin-7-yl]oxy]-3,4-dihydro-1H-1,8-naphthyridin-2-one hydrochloride] | 537 nM | <1.2 mg/L | – | – | –
2 | Cn1nc(C(F)(F)F)cc1-c1c[nH]c(C2COc3ccc(Oc4ccnc5c4CCC(=O)N5)cc3C2)n1 (stereo not drawn) [Compound 107, 5-[3-[4-[2-methyl-5-(trifluoromethyl)pyrazol-3-yl]-1H-imidazol-2-yl]chroman-6-yl]oxy-3,4-dihydro-1H-1,8-naphthyridin-2-one] | – | – | 191 nM | – | GI50 (HCT-116 cells): 229 nM; GI50 (WiDr cells): 776 nM
3 | O=C1CCc2c(Oc3ccc4c(c3)CC(c3nc5cc(C(F)(F)F)ncc5[nH]3)CO4)ccnc2N1 (racemic) [Compound 32] | 229 nM | <1.2 mg/L | – | – | –
4 | N#Cc1ccc2[nH]c(C3COc4ccc(Oc5ccnc6c5CCC(=O)N6)cc4C3)nc2c1 (stereo not drawn) [Compound 24] | 407 nM | <1.1 mg/L | – | – | –
5 | O=C1CCc2c(Oc3ccc4c(c3)CC(c3nc(-c5cccc(C(F)(F)F)c5)c[nH]3)CO4)ccnc2N1 (stereo not drawn) [Compound 12, 5-[3-[4-[3-(trifluoromethyl)phenyl]-1H-imidazol-2-yl]chroman-6-yl]oxy-3,4-dihydro-1H-1,8-naphthyridin-2-one] | 257 nM | <1.3 mg/L | – | – | –
6 | O=C1CCc2c(Oc3ccc4c(c3)CC(c3nc5ccncc5[nH]3)CO4)ccnc2N1 (stereo not drawn) [Compound 134, 5-[3-(3H-imidazo[4,5-c]pyridin-2-yl)chroman-6-yl]oxy-3,4-dihydro-1H-1,8-naphthyridin-2-one] | – | – | > 1000 nM | – | GI50 (HCT-116 cells): 15100 nM; GI50 (WiDr cells): 25700 nM
7 | Cc1cc2nc(C3COc4ccc(Oc5ccnc6c5CCC(=O)N6)cc4C3)[nH]c2cc1C (stereo not drawn) [Compound 29] | 132 nM | <1.1 mg/L | – | – | –
8 | COc1cc(-c2c[nH]c(C3COc4ccc(Oc5ccnc6c5CCC(=O)N6)cc4C3)n2)ccn1 (stereo not drawn) [Compound 19, 5-[3-[4-(2-methoxy-4-pyridyl)-1H-imidazol-2-yl]chroman-6-yl]oxy-3,4-dihydro-1H-1,8-naphthyridin-2-one] | 316 nM | – | – | – | solubility thermodynamic at 24 h (FeSSIF solubility assay; read-out: Sol (FESSIF)): 19.6 µg/mL (≈ 41.7 µM)
9 | O=C1CCc2c(Oc3ccc4c(c3)CN(C(=O)Nc3cccc(C(F)(F)F)c3)CC4)ccnc2N1 [Compound 50] | 46.8 nM | <1.2 mg/L | – | – | –
10 | O=C1CCc2c(Oc3ccc4c(c3)CC(c3nc(-c5ccc(C(F)(F)F)nc5)c[nH]3)CO4)ccnc2N1 (stereo not drawn) [Compound 127, 5-[3-[4-[6-(trifluoromethyl)-3-pyridyl]-1H-imidazol-2-yl]chroman-6-yl]oxy-3,4-dihydro-1H-1,8-naphthyridin-2-one] | – | – | 417 nM | 6 µg/mL (≈ 11.8 µM) | –
11 | Cc1cc(-c2c[nH]c(C3COc4ccc(Oc5ccnc6c5CCC(=O)N6)cc4C3)n2)n(CC(F)(F)F)n1 (stereo not drawn) [Compound 126, 5-[3-[4-[5-methyl-2-(2,2,2-trifluoroethyl)pyrazol-3-yl]-1H-imidazol-2-yl]chroman-6-yl]oxy-3,4-dihydro-1H-1,8-naphthyridin-2-one] | – | – | 501 nM | < 1.3 µg/mL | GI50 (WiDr cells): 15100 nM
12 | O=C(Nc1cc(Oc2ccc3c(c2)CC(c2nc(-c4ccccc4)c[nH]2)CO3)ccn1)C1CC(F)(F)C1 (stereo not drawn) [Compound 139] | – | – | 200 nM | 107 µg/mL (≈ 212 µM) | –
13 | CCc1cc(-c2c[nH]c(C3COc4ccc(Oc5ccnc6c5CCC(=O)N6)cc4C3)n2)n(C2CC2)n1 (stereo not drawn) [Compound 113, 5-[3-[4-(2-cyclopropyl-5-ethyl-pyrazol-3-yl)-1H-imidazol-2-yl]chroman-6-yl]oxy-3,4-dihydro-1H-1,8-naphthyridin-2-one] | – | – | > 1000 nM | 140 µg/mL (≈ 281 µM) | –
14 | Cc1cc(-c2c[nH]c(C3COc4ccc(Oc5ccnc6c5CCC(=O)N6)cc4C3)n2)n(C(C)C)n1 (stereo not drawn) [Compound 112, 5-[3-[4-(2-isopropyl-5-methyl-pyrazol-3-yl)-1H-imidazol-2-yl]chroman-6-yl]oxy-3,4-dihydro-1H-1,8-naphthyridin-2-one] | – | – | > 1000 nM | 51.1 µg/mL (≈ 105 µM) | –
15 | O=C(Nc1cc(Oc2ccc3c(c2)CC(c2nc(-c4ccccc4)c[nH]2)CO3)ccn1)C1(F)CC1 (stereo not drawn) [Compound 138] | – | – | 275 nM | – | –
16 | O=C(Nc1cc(Oc2ccc3c(c2)CC(c2nc(-c4ccccc4)c[nH]2)CO3)ccn1)C1CC1 (stereo not drawn) [Compound 45, N-[4-[3-(4-phenyl-1H-imidazol-2-yl)chroman-6-yl]oxy-2-pyridyl]cyclopropanecarboxamide] | 27.5 nM | <1.2 mg/L | – | – | –
17 | O=C1CCc2c(Oc3ccc4c(c3)CC(c3nc5cc(F)c(F)cc5[nH]3)CO4)ccnc2N1 (stereo not drawn) [Compound 23] | 316 nM | <1.1 mg/L | – | – | –
18 | O=C1CCc2c(Oc3ccc4c(c3)CN(C(=O)Nc3ccc(C(F)(F)F)cc3)CC4)ccnc2N1 [Compound 47] | 69.2 nM | – | – | – | solubility thermodynamic at 24 h (FeSSIF solubility assay; read-out: Sol (FESSIF)): 27.5 µg/mL (≈ 57 µM)
19 | O=C1CCc2c(Oc3ccc4c(c3)CC(c3nc(-c5cccnc5C(F)(F)F)c[nH]3)CO4)ccnc2N1 (stereo not drawn) [Compound 128, 5-[3-[4-[2-(trifluoromethyl)-3-pyridyl]-1H-imidazol-2-yl]chroman-6-yl]oxy-3,4-dihydro-1H-1,8-naphthyridin-2-one] | – | – | 389 nM | 1.6 µg/mL (≈ 3.15 µM) | –
20 | Cc1cc(-c2c[nH]c(C3COc4ccc(Oc5ccnc6c5CCC(=O)N6)cc4C3)n2)n(C2CC2)n1 (stereo not drawn) [Compound 114, 5-[3-[4-(2-cyclopropyl-5-methyl-pyrazol-3-yl)-1H-imidazol-2-yl]chroman-6-yl]oxy-3,4-dihydro-1H-1,8-naphthyridin-2-one] | – | – | > 1000 nM | 497 µg/mL (≈ 1030 µM) | –
21 | O=C1CCc2c(Oc3ccc4c(c3)CC(c3nc5cc(Cl)ccc5[nH]3)CO4)ccnc2N1 (stereo not drawn) [Compound 25] | 85.1 nM | – | – | – | solubility thermodynamic at 24 h (FeSSIF solubility assay; read-out: Sol (FESSIF)): 1.8 µg/mL (≈ 4.03 µM)
22 | CN(C)c1ccc2[nH]c(C3COc4ccc(Oc5ccnc6c5CCC(=O)N6)cc4C3)nc2c1 (stereo not drawn) [Compound 26] | 417 nM | <1.1 mg/L | – | – | –
23 | O=C1CCc2c(Oc3ccc4c(c3)CC(c3nc5cc(C(F)(F)F)ccc5[nH]3)CO4)ccnc2N1 (stereo not drawn) [Compound 22, 5-[3-[6-(trifluoromethyl)-1H-benzimidazol-2-yl]chroman-6-yl]oxy-3,4-dihydro-1H-1,8-naphthyridin-2-one] | 141 nM | <1.2 mg/L | – | – | –
